According to US20030207819A1, “Compositions and methods for treating inflammatory connective tissue diseases” (priority 2002, published 2003):

Experiments:
Format in all cases: in vivo, human
[1] = test system: patient with undifferentiated connective tissue disease; assay: Example 6: clarithromycin trial, VAS and joint assessment; details: person
Description: A patient, was first seen in September 1999. […] They have used a number of anti-inflammatory agents frequently for therapy.
On the basis of the findings, including recurrent episodes of arthritis, Raynaud's, and thickening of the hands, connective tissue disease diagnoses such as Mixed Connective Tissue Disease or Progressive Systemic Sclerosis were considered.
Based on these findings, a diagnosis of Undifferentiated Connective Tissue Disease was made. Therapy was initiated with hydroxychloroquine ([…]®, Sanofi-Synthelabo, Inc.) and a non-steroidal anti-inflammatory agent. They utilized steroid dose packs periodically for symptomatic relief of their peripheral symptoms as well as their neck symptoms.
On examination, they had symptoms and findings much as before and a diagnosis of Undifferentiated Connective Tissue Disease was made. The patient agreed to undergo a trial with clarithromycin.
Following screening and baseline evaluations, the patient was begun on clarithromycin (BIAXIN®, Abbott Laboratories).
25, 2003 (“Visit 3”), for their first recheck visit.
When seen for their one month evaluation, the patient had been off steroid medication for approximately ten days.
Further assessment of their status was made on Apr. 13, 2003 at which time they were now off steroids for almost a one-month period.
Patient was again seen Apr. 21, 2003 (“Visit Four”), for their formal two-month follow-up on clarithromycin.

[2] = test system: patient with undifferentiated connective tissue disease; assay: Example 1: clinical observation of patient on clarithromycin; details: person; switched from clarithromycin to azithromycin 500 mg day 1, 250 mg/day days 2 through 5
Description: We elected to continue them on this antibiotic. […] Because the patient was on Lodine (NSAID) at the same time, we elected to see if they could stop the Lodine and still have relief of symptoms.

[3] = test system: patient with low-grade connective tissue symptoms; assay: Example 5: clarithromycin study, VAS and joint assessment; details: person
Description: In 1991, it was elected to begin the patient on hydroxychloroquine ([…]®, Sanofi-Synthelabo, Inc.) given their low-grade connective tissue symptoms not responding to non-steroidal anti-inflammatory therapy. […] A trial of hydroxychloroquine was again initiated to see how they would tolerate it. […] Hydroxychloroquine was discontinued when they wanted to attempt getting pregnant again. Therapy most recently consisted of non-steroidal inflammatory agents and physical therapy.
On Feb. 27, 2003, the patient agreed to participate in the clarithromycin study. […] The patient was begun on clarithromycin (BIAXIN®, Abbott Laboratories) 500 mg twice per day.

CC1(C)S[C@@H]2[C@H](NC(=O)[C@H](N)c3ccc(O)cc3)C(=O)N2[C@H]1C(=O)O [amoxicillin]
effect on pain ([1]; amoxicillin tried on their own): of no help

CC[C@H]1OC(=O)[C@H](C)[C@@H](O[C@H]2C[C@@](C)(OC)[C@@H](O)[C@H](C)O2)[C@H](C)[C@@H](O[C@@H]2O[C@H](C)C[C@H](N(C)C)[C@H]2O)[C@](C)(O)C[C@@H](C)CN(C)[C@H](C)[C@@H](O)[C@]1(C)O [azithromycin]
Symptoms [2]: no increase in symptoms

CCN(CCO)CCCC(C)Nc1ccnc2cc(Cl)ccc12 (centres unmarked) [hydroxychloroquine]
reason for discontinuation (adverse effect) ([3]; hydroxychloroquine begun 1991, approximately nine months): weight loss | symptomatic improvement ([1]; hydroxychloroquine with a non-steroidal anti-inflammatory agent, approximately six months): did not feel significant improvement

CCN(CC)CCCC(C)Nc1c2ccc(Cl)cc2nc2ccc(OC)cc12 (centres unmarked) [quinacrine]
reason for discontinuation (skin colour) ([3]; quinacrine approximately one year, non-toxic condition): too yellow
